Laboratory results taken from PubChem BioAssay AID743417 (Broad Institute, 2014).
Inconclusive results are not listed. The source made the active and inactive calls.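 The calls were made as follows: active = compounds lowering the luciferase signal with a fitted half-maximal dose at most twice their top valid dose (cut at about 30 µM in these data); inconclusive = flat fits with moderate signal loss, or poor fits; inactive = the rest.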

Test system: Clone20 osteoblast Shn3 3'UTR firefly luciferase, 24 h
Assay: Shn3 3'UTR reporter inhibitors, dose response, cell-based, Clone20 osteoblasts, luminescence, dry powder, set 2 (AID 743417)

Row | SMILES | AC50
1 | CC(=O)OCC(=O)[C@@]1(O)CC[C@H]2[C@@H]3CCC4=CC(=O)CC[C@]4(C)[C@H]3C(=O)C[C@@]21C | 28.3 µM
2 | Cc1cc(Nc2cccc([N+](=O)[O-])c2)n2c(nc3ccccc32)c1C#N | 1.9 µM
3 | COc1ccc(-n2ncc(Cl)c(Cl)c2=O)cc1 | 3.36 µM
4 | O=S(=O)(Nc1cccc2ncccc12)c1cccs1 | 4.3 µM
5 | CC(Nc1ncnc2sccc12)c1ccccc1 (stereo not drawn) | 0.505 µM
6 | Cc1nc(NC(C)c2ccccc2)c2oc3ccccc3c2n1 (stereo not drawn) | 3.06 µM
7 | COc1ccc(C[C@H]2COC(=O)[C@@H]2Cc2ccc(OC3OC(CO)C(O)C(O)C3O)c(OC)c2)cc1OC (stereo partly drawn) | 4.43 µM
8 | COc1cc2c(OC(C)=O)c3c(c(-c4ccc5c(c4)OCO5)c2cc1OC)C(=O)OC3 | 1.8 µM
9 | O=C(COC(=O)c1n[nH]c2ccccc12)Nc1ccc(S(=O)(=O)N2CCCC2)cc1 | 5.33 µM
10 | O=C(NCCc1ccccc1)c1ccc2c(c1)OCCCO2 | 1.05 µM
11 | O=C(Cn1cnc2ccccc21)Nc1cccc(S(=O)(=O)N2CCCC2)c1 | 2.77 µM
12 | O=c1c2ccccc2nc2n1C(CSCc1ccc(Cl)cc1Cl)CS2 (stereo not drawn) | 1.45 µM
13 | Cc1cc2c(cc(C(=O)N3CCC(C(=O)NC4CCCC4)CC3)n2Cc2c(F)cccc2Cl)o1 | 4.81 µM
14 | CCOC(=O)C1CCCN(C(=O)Cn2sc3nc(C)cc(C)c3c2=O)C1 (stereo not drawn) | 12.5 µM
15 | O=C(C1CCC(CNS(=O)(=O)c2cccs2)CC1)N1CCN(c2ccc(Cl)cc2)CC1 (stereo not drawn) | 1.61 µM
16 | Cc1ccc(NC(=O)c2ccc(Cl)c(N3C(=O)C=CC3=O)c2)cc1 | 1.6 µM
17 | CC[C@H]1CN2CCc3cc(OC)c(OC)cc3[C@@H]2C[C@@H]1C[C@H]1NCCc2cc(OC)c(OC)cc21 | < 0.26 µM
18 | Cc1ccc(-c2nc3ncccc3o2)cc1NC(=O)c1sc2ccccc2c1Cl | 5.87 µM
19 | COc1ccc(-c2noc(CCCCC(=O)N3CCN(c4cc(C)ccc4C)CC3)n2)cc1 | 1.75 µM
20 | COc1ccc(/C=C/C(=O)NC(=S)NNC(=O)c2cnccn2)cc1 | 15.5 µM
21 | Oc1c(CN2CCCCC2)cc(COCc2ccccc2)c2cccnc12 | 0.537 µM
22 | c1csc(CNc2ncnc3sccc23)c1 | 1.8 µM
23 | O=C(c1ccc(Cn2c(=S)[nH]c3ccccc3c2=O)cc1)N1CCN(c2ccccn2)CC1 | 6.34 µM
24 | CCN(CC)CC(C)(C)C(=O)/C=C/c1ccc(/C=C/C(=O)C(C)(C)CN(CC)CC)cc1 | 0.468 µM
25 | Cc1ccccc1OCC(O)CNC1CCC(NCC(O)COc2ccccc2C)CC1 (stereo not drawn) | 4.5 µM
26 | O=C(NC1CCCCCCC1)c1cc(COc2ccc3ncccc3c2)on1 | 1.06 µM

Row | SMILES | AC50
27 | CC1(C)CC(=O)c2c(nc(SCC(=O)Nc3nsc(-c4ccccc4)n3)c(C#N)c2-c2ccccc2)C1 | > 70 µM (inactive)
28 | Cc1cccc(NC(=O)Cn2cc(C(=O)C3CC3)c3ccccc32)c1C | 2.39 µM
29 | COc1cccc(C2CC(c3ccc(C)cc3)=NN2C(=O)c2ccccc2F)c1OC (stereo not drawn) | 36 µM
30 | CC/C(=C/c1ccccc1)c1cccc2[nH]c3c(OC)cccc3c12 | 32.8 µM
31 | Cc1ccc(NC(=O)c2nc(S(=O)(=O)Cc3ccccc3C)ncc2Cl)cc1C | 0.486 µM
32 | C=C1C(=O)[C@@]23[C@H](O)C[C@@H]4C(C)(C)CC[C@H](O)[C@]4(C)[C@@H]2C[C@H](O)[C@@H]1[C@H]3O | 2.95 µM
33 | CCn1c(N2CCN(S(=O)(=O)c3ccc(Cl)cc3)CC2)nc2ccccc21 | 9.14 µM
34 | CN(CCOc1ccc(Cl)cc1)C(=O)c1cccc(S(=O)(=O)N2CCN(Cc3ccccc3)CC2)c1 | 2.29 µM
35 | CCCCC(=O)NC(c1ccc(N(CC)CC)cc1)c1ccc2cccnc2c1O (stereo not drawn) | 1.12 µM
36 | COC(=O)c1cn(NC(=O)c2cc([N+](=O)[O-])ccc2F)c(=O)c2ccccc12 | 2.85 µM
37 | O=C(c1nnsc1S(=O)c1ccc(Cl)cc1)N1CCOCC1 (stereo not drawn) | 0.93 µM
38 | COC(=O)/C(=C1/Oc2cc(C)oc(=O)c2S1)C(F)(F)F | 4.64 µM
39 | CC(=O)N1CCN(C(=O)CCc2cc(C(C)(C)C)c(O)c(C(C)(C)C)c2)CC1 | 4.46 µM
40 | Cc1cccc(N2CCN(C(=S)Nc3ccc4nc(N5CCN(C)CC5)cc(C)c4c3)CC2)c1C | 5.45 µM
41 | CCC(CC)CC1CN2CCc3cc(OC)c(OC)cc3C2CC1(O)CC (stereo not drawn) | 2 µM
42 | CCOC(=O)C1CCN(S(=O)(=O)c2c(Cl)ccc3nonc23)CC1 | 0.919 µM
43 | O=C(Nc1nc(-c2ccccn2)cs1)C1COc2ccccc2O1 (stereo not drawn) | 5.81 µM
44 | O=C(/C=C/c1ccccc1)NC(NC(=S)Nc1ccc(Cl)cc1)C(Cl)(Cl)Cl (stereo not drawn) | 5.13 µM
45 | CCCCC(=O)NC(c1ccc(OC)c(OC)c1)c1ccc2cccnc2c1O (stereo not drawn) | 1.36 µM
46 | CCC(=O)NC(c1ccc(Cl)cc1Cl)c1ccc2cccnc2c1O (stereo not drawn) | 1.19 µM
47 | CS(=O)(=O)c1nc(-c2ccc(F)cc2)cc(C(F)(F)F)n1 | 2.72 µM
48 | CC1CN(C(=O)CCc2cc(C(C)(C)C)c(O)c(C(C)(C)C)c2)CC(C)O1 (stereo not drawn) | 2.56 µM
49 | COC(=O)[C@]1(C)CCC[C@@]2(C)C3CC[C@@]4(C)C[C@]3(CCC21)CC(=O)N4Cc1ccc(OC)cc1 (stereo partly drawn) | 8.16 µM
50 | Cc1cccc(NC(=O)/C=C/c2ccc([N+](=O)[O-])s2)c1 | 3.29 µM
51 | C[C@H]1CN=C(N(C)C)N1CC1CCC(C(C)(C)C)CC1 (stereo partly drawn) | 2.27 µM
52 | CNS(=O)(=O)c1cccc(C(=O)OCc2cc(C(C)=O)ccc2OC)c1 | 11.2 µM

Row | SMILES | AC50
53 | Cc1cccc(CS(=O)(=O)c2ncc(Cl)c(C(=O)NCc3ccc4c(c3)OCO4)n2)c1 | 0.938 µM
54 | CCN1CCN(Cc2ccc(NC(=O)c3cc(NC(=O)c4cncc(-c5ccc(C#N)cc5)c4)cc(OC)c3)cc2C(F)(F)F)CC1 | 3.36 µM
55 | CC(C)(C)c1ccc(C(O)CCCN2CCC(C(O)(c3ccccc3)c3ccccc3)CC2)cc1 (stereo not drawn) | 16.7 µM
56 | NC(=O)CC(NC(=O)c1ccc(Br)cc1)c1ccc(N2CCC(Br)CC2)c([N+](=O)[O-])c1 (stereo not drawn) | 4.19 µM
57 | C#CC(=O)N(c1ccc(OC)cc1OC)C(C(=O)NC1CCCC1)c1cccs1 (stereo not drawn) | 7.12 µM
58 | OCCCNc1cc(-c2ccnc(Nc3cccc(Cl)c3)n2)ccn1 | < 0.26 µM
59 | CN1CCN(Cc2nc3ccccc3c(=O)n2Cc2nc(-c3ccc4ccccc4c3)cs2)CC1 | 11 µM
60 | CC1CC(C)CC(C)C(O)C(C#N)=CC=CCC(C2CCCC2C(=O)O)OC(=O)CC(O)C(C)C1 (stereo not drawn) | < 0.26 µM
61 | Cc1ccc(N2C(=O)c3cccc4c([N+](=O)[O-])ccc(c34)C2=O)c2cccnc12 | 5.68 µM
62 | COc1ccccc1C(CCNCc1ccc(N(C)C)cc1)c1ccc(OC(C)C)cc1 (stereo not drawn) | 6.48 µM
63 | CC(Oc1ccc(F)cc1)C(=O)N(CCC1=CCCCC1)c1c(N)n(Cc2ccccc2)c(=O)[nH]c1=O (stereo not drawn) | 7.99 µM
64 | CN(c1cccc(Cl)c1)S(=O)(=O)c1cccc(C(=O)NCc2ccncc2)c1 | < 0.26 µM
65 | CCOC(=O)N1CCN(S(=O)(=O)c2ccc(C(=O)Nc3nc4ccc(F)cc4s3)cc2)CC1 | 4.79 µM
66 | CC12CC(O)C3c4ccc(O)cc4CCC3C1CCC2=O (stereo not drawn) | > 70 µM (inactive)
67 | O=C(Nc1ccc(Cl)cc1)Nc1ccc(N2CCCC2)c(S(=O)(=O)Nc2ccccc2Cl)c1 | 5.2 µM
68 | Cc1ccc2nnn(Cc3cccc(C(C)(C)C)c3O)c2c1 | 5.44 µM
69 | O=C(/C=C/c1ccc(O)c(O)c1)OCCc1ccccc1 | 0.877 µM
70 | COc1ccc(Cc2nccc3cc(OC)c(OC)cc23)cc1OC | 2.48 µM
71 | Cc1ccccc1NC(=O)CSc1nc2ccccc2c(=O)n1C | 7.64 µM
72 | CCOC(=O)/C=C/C(=O)OCC(=O)NC(c1ccccc1)c1ccccc1 | 5.14 µM
73 | C[C@]12CC[C@H](O)CC1=CCC1C2CC[C@@]2(C)C1CCC21OCCO1 (stereo partly drawn) | 27.3 µM
74 | CC1CN(S(=O)(=O)c2ccc(C(=O)Nc3nc(-c4cc5ccccc5o4)cs3)cc2)CC(C)O1 (stereo not drawn) | < 0.26 µM
75 | COc1cc2c(cc1OC)C1C(=O)c3ccc4c(c3OC1CO2)CC(C(C)C)O4 (stereo not drawn) | < 0.26 µM
76 | CCOC(=O)c1c(NC(=O)C2c3ccccc3Oc3ccccc32)sc(C(C)=O)c1C | 4.67 µM
77 | C=C1C(=O)OC2CC(C)C3C=CC(=O)C3(C)C(O)C12 (stereo not drawn) | < 0.26 µM
78 | CCOC(=O)c1c(NC(=O)c2nn(CC)cc2Br)sc(C)c1C | 11 µM

Row | SMILES | AC50
79 | COC(=O)C1=C(C(=O)OC)[C@@H]2N(Cc3ccccc3)c3ccccc3[C@@]23C[C@@H](C(=O)OC)N(C(=O)c2ccc(Br)cc2)C3=N1 | 8.52 µM
80 | CC(C)(O)/C=C/C(=O)C(C)(O)C1C(O)CC2(C)C3CC=C4C(C=C(O)C(=O)C4(C)C)C3(C)C(=O)CC12C (stereo not drawn) | 1.83 µM
81 | CCC1CCCCN1C(=O)c1cc(COc2ccc3ncccc3c2)on1 (stereo not drawn) | 0.46 µM
82 | CCCCCOc1ccc(Br)cc1CSC(=N)N | 1.47 µM
83 | COc1ccc(NC(=O)/C(Cl)=C(/Cl)S(=O)Cc2ccc(Cl)cc2)cn1 (stereo not drawn) | 1.34 µM
84 | c1ccc(-c2cc3nc(NCC4CC4)nc(NCC4CCCCC4)c3s2)cc1 | 2.67 µM
85 | Oc1c(C(Nc2cccc(C(F)(F)F)c2)c2ccncc2)ccc2cccnc12 (stereo not drawn) | 5.8 µM
86 | CC1Cc2cc(S(=O)(=O)N3CCN(c4ccc(Cl)cc4)CC3)ccc2N1C(=O)C1CC1 (stereo not drawn) | 4.26 µM
87 | Cc1cccc(C)c1NC(=O)c1nc(S(=O)(=O)Cc2ccccc2)ncc1Cl | 4.33 µM
88 | Cc1c(C(C)C)c(=O)n(-c2ccc(S(=O)(=O)NCc3ccccc3)cc2)n1C | 1.18 µM
89 | COc1ccccc1NC(=O)Cn1c(C)cc(=O)c2cccc(OC)c21 | 3.16 µM
90 | CC(C)CCOc1cccc(OCC(=O)Nc2ccncc2)c1 | 0.571 µM
91 | CN(C(=O)COc1ccccc1C(=O)NCCOc1ccccc1)c1ccccc1 | 1.57 µM
92 | CC(C)C1C(=O)N(Cc2cn(CCC3OCCO3)nn2)CCS(=O)(=O)N1Cc1ccc(-c2ccc(Cl)c(Cl)c2)cc1 (stereo not drawn) | 1.28 µM
93 | CC(C)(C)C(=O)/C(=C/c1ccc(Cl)cc1)n1cncn1 | 3.75 µM
94 | COc1ccc(CC(N)c2csc(NC(=O)c3cc(C(C)(C)C)nn3Cc3ccccc3)n2)cc1 (stereo not drawn) | 9.53 µM
95 | Cc1cc(C)c2sc(NNC(=O)c3ccc(S(=O)(=O)N4CCc5ccccc5C4)cc3)nc2c1 | 1.8 µM
96 | Cc1ccc(C)c(N2CCN(S(=O)(=O)c3ccc4[nH]c(=O)ccc4c3)CC2)c1 | 24.2 µM
97 | Cc1ccc(Cn2c(=N)n(CC(O)COc3ccccc3)c3ccccc32)cc1 (stereo not drawn) | 2.46 µM
98 | COc1cc(CN2CCc3ccccc3C2)ccc1O | 0.912 µM
99 | O=C(NNC(=S)Nc1ccc(Cl)c(Cl)c1)c1ccccn1 | 2.33 µM
100 | CCCCC(=O)NC(c1cccc([N+](=O)[O-])c1)c1ccc2cccnc2c1O (stereo not drawn) | 1 µM
101 | COc1ccc(OC)c(NC(=O)c2cc(-c3cc(F)ccc3OCC3CCCO3)n[nH]2)c1 (stereo not drawn) | 10.5 µM
102 | CC(C)C(=O)NC(c1cccc([N+](=O)[O-])c1)c1ccc2cccnc2c1O (stereo not drawn) | 2.57 µM
103 | CC1CCC/C=C/C(=O)c2c(O)cc(O)cc2CC(=O)O1 (stereo not drawn) | 4.12 µM
